Measured values from patent US4324728A, “Compound nanaomycin A and derivatives thereof and a process for producing the same” (The Kitasato Institute, priority 1976, dated 1982).
Converted amounts (≈) assume the structure as drawn. Read-outs that look alike come from different tables or passages of the source.

What was measured:
Assay type in all cases: cell-based
[1] = tested on: Escherichia coli NIHJ (JC-2); assay: Minimal inhibitory concentration (agar); settings: 48 h, pH 7, nutrient agar, pH 7.0, 2 days, 37° C.
Experimental: (§1) Medium N nutrient agar (pH 7.0, 2 days, 37° C.)
(§2) MIC Minimal inhibitory concentration
(§3) N nutrient agar (pH 7.0, 2 days, 37° C.)

Trichophyton pedis 804 = assay: Minimal inhibitory concentration (agar); settings: Trichophyton pedis, 804, 96 h, pH 6.4, potato agar, pH 6.4, 4 days, 27° C.; read-out: MIC
Salmonella typhimurium = assay: Minimal inhibitory concentration (agar); settings: Salmonella enterica, 48 h, pH 7.0, 2 days, 37° C.
Trichophyton purpureum = assay: Minimal inhibitory concentration (agar); settings: 96 h, pH 6.4, potato agar, pH 6.4, 4 days, 27° C., read-out: MIC
Piricularia oryzae = assay: microbe, parasite or virus in culture; settings: 96 h, pH 6.4, potato agar, pH 6.4, 4 days, 27° C.
[2] = tested on: Mycoplasma gallisepticum KP-13; assay: Antimycoplasma activity, inhibition zone; settings: Eiken PPLO agar, pH 7.8, 8 days, 37° C.
Experimental: (§4) E Eiken PPLO agar (pH 7.8, 8 days, 37° C.)
(§5) Nanaomycin A and derivatives thereof according to the present invention are assayed in a similar manner to that designated as the paper disc method by Itoh, et al [J. of Antibiotics, 24, 855-859 (1971)], for example, as follows: […]

[3] = tested on: Trichophyton mentagrophytes; assay: Minimal inhibitory concentration (agar); settings: 96 h, pH 6.4, potato agar, pH 6.4, 4 days, 27° C.
Pseudomonas aeruginosa = assay: Minimal inhibitory concentration (agar); settings: 48 h, nutrient agar, pH 7.0, 2 days, 37° C.
Experimental: as §1, §2, §3

Shigella flexneri = assay: Minimal inhibitory concentration (agar); settings: 48 h, nutrient agar, pH 7.0, 2 days, 37° C.
Experimental: as §1, §2, §3

[4] = tested on: Mycoplasma gallisepticum S-6; assay: Minimal inhibitory concentration (PPLO agar); settings: Mycoplasmoides gallisepticum, S6, 192 h, pH 7.8, 8 days, 37° C.
Experimental: (§6) H Hokken PPLO agar (pH 7.8, 8 days, 37° C.)
as §4, §2

[5] = tested on: Mycoplasma gallisepticum KP-13; assay: Minimal inhibitory concentration (PPLO agar); settings: Mycoplasmoides gallisepticum, KP13, 192 h, pH 7.8, 8 days, 37° C.
Experimental: as §6, §4, §2

[6] = tested on: Acholeplasma laidlawii (B) Bml; assay: Minimal inhibitory concentration (PPLO agar); settings: 192 h, pH 7.8, 8 days, 37° C.
Experimental: as §6, §4, §2

[7] = tested on: Mycoplasma gallisepticum 333P (Spiramycin resistant); assay: Minimal inhibitory concentration (PPLO agar)
Experimental: as §6, §4, §2

[8] = tested on: Acholeplasma laidlawii (A) PG8; assay: Minimal inhibitory concentration (PPLO agar); settings: pH 7.8, 8 days, 37° C.
Experimental: as §6, §4, §2

Mycoplasma pneumoniae = assay: Minimal inhibitory concentration (PPLO agar); settings: 192 h, Eiken PPLO agar, pH 7.8, 8 days, 37° C.
Mycoplasma gallinarum = assay: Minimal inhibitory concentration (PPLO agar); settings: Mycoplasmopsis gallinarum, 192 h, Hokken PPLO agar, pH 7.8, 8 days, 37° C.
Experimental: as §6, §2, §4

Mycoplasma iners = assay: Minimal inhibitory concentration (PPLO agar); settings: Mycoplasmopsis iners, 192 h; Hokken PPLO agar, pH 7.8, 8 days, 37° C.
Experimental: as §6, §2, §4

mycoplasma = assay: Antimycoplasma activity, paper disc method
Experimental: Inhibitory zone is assayed by paper disc method (Eiken PPLO agar, pH 7.8,
as §5

[9] = tested on: fungi belonging to the genus Trichophyton; assay: Growth inhibition (text summary of Table 1); settings: 96 h, some fungi of the genus, read-out: concentration at which growth is inhibited
Experimental: | P potato agar (pH 6.4, 4 days, 27° C.)

[10] = tested on: Xanthomonas oryzae N-5824; assay: microbe, parasite or virus in culture; settings: N5824, 48 h, pH 7
Mycoplasma gallisepticum = assay: Growth inhibition (text summary of Table 1); settings: Mycoplasmoides gallisepticum, 192 h; read-out: concentration at which growth is inhibited
Experimental: as §6, §4

## CC(=O)Oc1cccc2c1C(=O)C1=C(CC(CC(=O)O)OC1C)C2=O (centres unmarked) [Acetylnanaomycin A, acetylnanaomycin A]
[1]
  MIC: > 100 µg/mL
Trichophyton pedis 804
  MIC: 0.8 µg/mL (≈ 2.32 µM)
Salmonella typhimurium; nutrient agar
  MIC: 50 µg/mL (≈ 145 µM)
Trichophyton purpureum
  MIC: 1.6 µg/mL (≈ 4.65 µM)
Piricularia oryzae
  MIC: 0.8 µg/mL (≈ 2.32 µM)
[2]
  Inhibition Zone: 28.5 mm
[3]
  MIC: 0.4 µg/mL (≈ 1.16 µM)

## CC1OC(CC(=O)O)CC2=C1C(=O)c1c(O)cccc1C2=O (centres unmarked) [Nanaomycin A, nanaomycin A]
Pseudomonas aeruginosa
  MIC: 500 µg/mL (≈ 1650 µM)
Shigella flexneri
  MIC: 31.3 µg/mL (≈ 104 µM)
[4]; pH 7.8, Hokken PPLO agar
  MIC: < 0.013 µg/mL
[4]; Eiken PPLO agar, read-out: MIC
  MIC: 0.1 µg/mL (≈ 0.331 µM)
[5]; pH 7.8, Eiken PPLO agar
  MIC: 0.05 µg/mL (≈ 0.165 µM)
[5]; pH 7.8, Hokken PPLO agar
  MIC: < 0.013 µg/mL
[6]; pH 7.8, Eiken PPLO agar
  MIC: > 25 µg/mL
[6]; pH 7.8, Hokken PPLO agar
  MIC: 25 µg/mL (≈ 82.7 µM)
[7]; Eiken PPLO agar, pH 7.8, 8 days, 37° C.
  MIC: < 0.013 µg/mL
[7]; Mycoplasmoides gallisepticum, 192 h, pH 7.8
  MIC: < 0.013 µg/mL
[7]; in words
  activity against spiramycin-resistant Mycoplasma gallisepticum: strong activity
[8]; Acholeplasma laidlawii, 192 h, Hokken PPLO agar, read-out: MIC
  MIC: > 25 µg/mL
[8]; Eiken PPLO agar
  MIC: > 25 µg/mL
Salmonella typhimurium; nutrient agar
  MIC: 100 µg/mL (≈ 331 µM)
Salmonella typhimurium; pH 7, nutrient agar
  MIC: 62.5 µg/mL (≈ 207 µM)
Mycoplasma pneumoniae
  MIC: 0.013 µg/mL (≈ 0.043 µM)
Mycoplasma gallinarum
  MIC: 1.56 µg/mL (≈ 5.16 µM)
Mycoplasma iners
  MIC: 3.12 µg/mL (≈ 10.3 µM)
[2]
  Inhibition Zone: 28.7 mm
mycoplasma; Mycoplasma, 24 h, 10 μg/ml, Eiken PPLO agar, pH 7.8, 37° C., 1 day, read-out: Inhibitory Zone
  zone of inhibition at 10 µg/mL: 20.4 mm
mycoplasma; Mycoplasma, 24 h, 100 μg/ml, Eiken PPLO agar, pH 7.8, 37° C., 1 day, read-out: Inhibitory Zone
  zone of inhibition at 100 µg/mL: 28.7 mm
mycoplasma; paper disc, Table 5
  antimycoplasma activity compared with deoxyfrenolicin and ethylkalafunginate: superior to those of deoxyfrenolicin and ethylkalafunginate
[9]
  MIC: ≤ 3.1 µg/mL
[10]
  MIC: 62.5 µg/mL (≈ 207 µM)
Mycoplasma gallisepticum
  MIC: ≤ 0.1 µg/mL
